Laboratory results reported in ChEMBL document CHEMBL1649226, “Species identification and antifungal susceptibility patterns of species belonging to Aspergillus section Nigri” (2009).
Starred links: 1 amine or outer side, 2 acyl side, 3 side chain; linkers in the order of their positions; H or OH if unused. Positions of bridges follow the written chain, without caps; N, C: chain ends. Non-standard residues stand in square brackets, D forms with d. Residues, ends and D or L forms follow the SMILES beside them. *: point of attachment. hTyr(3S-OH,4S-OH,3'-OSO3H) = N[C@H](C(=O)O)[C@H](O)[C@@H](O)c1ccc(O)c(OS(=O)(=O)O)c1; Orn(4R-OH,5R-OH) = O=C([C@H](C[C@@H](O)[C@@H](O)N[*:3])N[*:1])[*:2]; Pro(3S-OH,4S-Me) = C[C@H]1CN[C@H](C(=O)O)[C@H]1O; X1 = CCCCCOc1ccc(-c2cc(-c3ccc(C(=O)*)cc3)no2)cc1; Gln(3R-OH) = NC(=O)C[C@@H](O)[C@H](N)C(=O)O; Hyp = O=C(O)[C@@H]1C[C@@H](O)CN1

Columns and labels:
Format in all cases: functional
Aspergillus niger [1] = assay: Antifungal activity against Aspergillus niger isolate CM-3236 obtained from respiratory tract infection of patient assessed as inhibition of hyphal growth after 48 hrs; conditions: isolate CM-3236, 48 h, read-out: MEC
Aspergillus niger [2] = assay: Antifungal activity against Aspergillus niger isolate CM-3257 obtained from respiratory tract infection of patient assessed as inhibition of hyphal growth after 48 hrs; conditions: isolate CM-3257, 48 h, read-out: MEC
Aspergillus niger [3] = assay: Antifungal activity against Aspergillus niger isolate CM-3506 obtained from respiratory tract infection of patient assessed as inhibition of hyphal growth after 48 hrs; conditions: isolate CM-3506, 48 h, read-out: MEC
Aspergillus tubingensis [4] = assay: Antifungal activity against Aspergillus tubingensis isolate CM-3507 obtained from respiratory tract infection of patient assessed as inhibition of hyphal growth after 48 hrs; conditions: isolate CM-3507, 48 h, read-out: MEC
Aspergillus tubingensis [5] = assay: Antifungal activity against Aspergillus tubingensis isolate CM-3585 assessed as inhibition of hyphal growth after 48 hrs; conditions: isolate CM-3585, 48 h, read-out: MEC
Aspergillus niger [6] = assay: Antifungal activity against Aspergillus niger isolate CM-3586 obtained from catheter of patient assessed as inhibition of hyphal growth after 48 hrs; conditions: isolate CM-3586, 48 h, read-out: MEC
Aspergillus niger [7] = assay: Antifungal activity against Aspergillus niger isolate CM-3636 obtained from respiratory tract infection of patient assessed as inhibition of hyphal growth after 48 hrs; conditions: isolate CM-3636, 48 h, read-out: MEC
Aspergillus niger [8] = assay: Antifungal activity against Aspergillus niger isolate CM-3641 obtained from respiratory tract infection of patient assessed as inhibition of hyphal growth after 48 hrs; conditions: isolate CM-3641, 48 h, read-out: MEC
Aspergillus niger [9] = assay: Antifungal activity against Aspergillus niger isolate CM-3672 obtained from cutaneous layer of patient assessed as inhibition of hyphal growth after 48 hrs; conditions: isolate CM-3672, 48 h, read-out: MEC
Aspergillus niger [10] = assay: Antifungal activity against Aspergillus niger isolate CM-4004 obtained from assessed as inhibition of hyphal growth after 48 hrs; conditions: isolate CM-4004, 48 h, read-out: MEC
Aspergillus niger [11] = assay: Antifungal activity against Aspergillus niger isolate CM-4213 obtained from respiratory tract infection of patient assessed as inhibition of hyphal growth after 48 hrs; conditions: isolate CM-4213, 48 h, read-out: MEC
Aspergillus tubingensis [12] = assay: Antifungal activity against Aspergillus tubingensis isolate CM-4264 obtained from blood culture assessed as inhibition of hyphal growth after 48 hrs; conditions: isolate CM-4264, 48 h, read-out: MEC
Aspergillus tubingensis [13] = assay: Antifungal activity against Aspergillus tubingensis isolate CM-4296 obtained from respiratory tract infection of patient assessed as inhibition of hyphal growth after 48 hrs; conditions: isolate CM-4296, 48 h, read-out: MEC
Aspergillus niger [14] = assay: Antifungal activity against Aspergillus niger isolate CM-4316 obtained from respiratory tract infection of patient assessed as inhibition of hyphal growth after 48 hrs; conditions: isolate CM-4316, 48 h, read-out: MEC
Aspergillus tubingensis [15] = assay: Antifungal activity against Aspergillus tubingensis isolate CM-5094 obtained from respiratory tract infection of patient assessed as inhibition of hyphal growth after 48 hrs; conditions: isolate CM-5094, 48 h, read-out: MEC
Aspergillus niger [16] = assay: Antifungal activity against Aspergillus niger isolate CM-5095 obtained from respiratory tract infection of patient assessed as inhibition of hyphal growth after 48 hrs; conditions: isolate CM-5095, 48 h, read-out: MEC
Aspergillus tubingensis [17] = assay: Antifungal activity against Aspergillus tubingensis isolate CM-3123 obtained from respiratory tract infection of patient assessed as inhibition of hyphal growth after 48 hrs; conditions: isolate CM-3123, 48 h, read-out: MEC
Aspergillus tubingensis [18] = assay: Antifungal activity against Aspergillus tubingensis isolate CM-3810 obtained from respiratory tract infection of patient assessed as inhibition of hyphal growth after 48 hrs; conditions: isolate CM-3810, 48 h, read-out: MEC
Aspergillus tubingensis [19] = assay: Antifungal activity against Aspergillus tubingensis isolate CM-4003 assessed as inhibition of hyphal growth after 48 hrs; conditions: isolate CM-4003, 48 h, read-out: MEC
Aspergillus tubingensis [20] = assay: Antifungal activity against Aspergillus tubingensis isolate CM-4005 assessed as inhibition of hyphal growth after 48 hrs; conditions: isolate CM-4005, 48 h, read-out: MEC
Aspergillus tubingensis [21] = assay: Antifungal activity against Aspergillus tubingensis isolate CM-4688 obtained from respiratory tract infection of patient assessed as inhibition of hyphal growth after 48 hrs; conditions: isolate CM-4688, 48 h, read-out: MEC
Aspergillus foetidus [22] = assay: Antifungal activity against Aspergillus foetidus isolate CM-5264 obtained from respiratory tract infection of patient assessed as inhibition of hyphal growth after 48 hrs; conditions: isolate CM-5264, 48 h, read-out: MEC
Aspergillus tubingensis [23] = assay: Antifungal activity against Aspergillus tubingensis isolate CM-3125 obtained from respiratory tract infection of patient assessed as inhibition of hyphal growth after 48 hrs; conditions: isolate CM-3125, 48 h, read-out: MEC
Aspergillus tubingensis [24] = assay: Antifungal activity against Aspergillus tubingensis isolate CM-3177 obtained from respiratory tract infection of patient assessed as inhibition of hyphal growth after 48 hrs; conditions: isolate CM-3177, 48 h, read-out: MEC
Aspergillus niger [25] = assay: Antifungal activity against Aspergillus niger isolate CM-3551 obtained from respiratory tract infection of patient assessed as inhibition of hyphal growth after 48 hrs; conditions: isolate CM-3551, 48 h, read-out: MEC
Aspergillus tubingensis [26] = assay: Antifungal activity against Aspergillus tubingensis isolate CM-3654 obtained from blood culture assessed as inhibition of hyphal growth after 48 hrs; conditions: isolate CM-3654, 48 h, read-out: MEC
Aspergillus tubingensis [27] = assay: Antifungal activity against Aspergillus tubingensis isolate CM-4000 by broth dilution method assessed as inhibition of hyphal growth after 48 hrs; conditions: isolate CM-4000, 48 h, read-out: MEC
Aspergillus tubingensis [28] = assay: Antifungal activity against Aspergillus tubingensis isolate CM-4001 assessed as inhibition of hyphal growth after 48 hrs; conditions: isolate CM-4001, 48 h, read-out: MEC
Aspergillus foetidus [29] = assay: Antifungal activity against Aspergillus foetidus isolate CM-4002 assessed as inhibition of hyphal growth after 48 hrs; conditions: isolate CM-4002, 48 h, read-out: MEC
Aspergillus niger [30] = assay: Antifungal activity against Aspergillus niger isolate CM-4262 obtained from Ophthalmic assessed as inhibition of hyphal growth after 48 hrs; conditions: isolate CM-4262, 48 h, read-out: MEC
Aspergillus tubingensis [31] = assay: Antifungal activity against Aspergillus tubingensis isolate CM-4352 obtained from respiratory tract infection of patient assessed as inhibition of hyphal growth after 48 hrs; conditions: isolate CM-4352, 48 h, read-out: MEC
Aspergillus tubingensis [32] = assay: Antifungal activity against Aspergillus tubingensis isolate CM-4897 obtained from blood culture assessed as inhibition of hyphal growth after 48 hrs; conditions: isolate CM-4897, 48 h, read-out: MEC
Aspergillus tubingensis [33] = assay: Antifungal activity against Aspergillus tubingensis isolate CM-4899 obtained from respiratory tract infection of patient assessed as inhibition of hyphal growth after 48 hrs; conditions: isolate CM-4899, 48 h, read-out: MEC
Aspergillus foetidus [34] = assay: Antifungal activity against Aspergillus foetidus isolate CM-4995 obtained from prosthesis assessed as inhibition of hyphal growth after 48 hrs; conditions: isolate CM-4995, 48 h, read-out: MEC

Row | Compound | minimal effective concentration (Aspergillus niger [1]) [µg/mL] | minimal effective concentration (Aspergillus niger [2]) [µg/mL] | minimal effective concentration (Aspergillus niger [3]) [µg/mL] | minimal effective concentration (Aspergillus tubingensis [4]) [µg/mL] | minimal effective concentration (Aspergillus tubingensis [5]) [µg/mL] | minimal effective concentration (Aspergillus niger [6]) [µg/mL] | minimal effective concentration (Aspergillus niger [7]) [µg/mL] | minimal effective concentration (Aspergillus niger [8]) [µg/mL] | minimal effective concentration (Aspergillus niger [9]) [µg/mL] | minimal effective concentration (Aspergillus niger [10]) [µg/mL] | minimal effective concentration (Aspergillus niger [11]) [µg/mL] | minimal effective concentration (Aspergillus tubingensis [12]) [µg/mL] | minimal effective concentration (Aspergillus tubingensis [13]) [µg/mL] | minimal effective concentration (Aspergillus niger [14]) [µg/mL] | minimal effective concentration (Aspergillus tubingensis [15]) [µg/mL] | minimal effective concentration (Aspergillus niger [16]) [µg/mL] | minimal effective concentration (Aspergillus tubingensis [17]) [µg/mL] | minimal effective concentration (Aspergillus tubingensis [18]) [µg/mL] | minimal effective concentration (Aspergillus tubingensis [19]) [µg/mL] | minimal effective concentration (Aspergillus tubingensis [20]) [µg/mL] | further results
1 | CC[C@H](C)C[C@H](C)CCCCCCCCC(=O)N[C@H]1C[C@@H](O)[C@@H](NCCN)NC(=O)[C@@H]2[C@@H](O)CCN2C(=O)[C@H]([C@H](O)CCN)NC(=O)[C@H]([C@H](O)[C@@H](O)c2ccc(O)cc2)NC(=O)[C@@H]2C[C@@H](O)CN2C(=O)[C@H]([C@@H](C)O)NC1=O [CASPOFUNGIN] | 0.25 | 0.25 | 0.15 | 0.06 | 0.37 | 1 | 0.25 | 0.5 | 0.15 | 0.1 | 0.39 | 0.03 | 0.25 | 0.25 | 0.19 | 0.25 | 0.25 | 0.5 | 0.25 | 0.5 | minimal effective concentration (Aspergillus tubingensis [21]): 0.18 µg/mL; minimal effective concentration (Aspergillus foetidus [22]): 0.06 µg/mL; minimal effective concentration (Aspergillus tubingensis [23]): 0.05 µg/mL; minimal effective concentration (Aspergillus tubingensis [24]): 0.05 µg/mL; minimal effective concentration (Aspergillus niger [25]): 0.03 µg/mL; minimal effective concentration (Aspergillus tubingensis [26]): 0.14 µg/mL; minimal effective concentration (Aspergillus tubingensis [27]): 0.1 µg/mL; minimal effective concentration (Aspergillus tubingensis [28]): 0.11 µg/mL; minimal effective concentration (Aspergillus foetidus [29]): 0.14 µg/mL; minimal effective concentration (Aspergillus niger [30]): 0.13 µg/mL; minimal effective concentration (Aspergillus tubingensis [31]): 0.15 µg/mL; minimal effective concentration (Aspergillus tubingensis [32]): 0.1 µg/mL; minimal effective concentration (Aspergillus tubingensis [33]): 0.1 µg/mL; minimal effective concentration (Aspergillus foetidus [34]): 0.14 µg/mL
2 | CCCCCOc1ccc(-c2cc(-c3ccc(C(=O)N[C@H]4C[C@@H](O)[C@@H](O)NC(=O)[C@@H]5[C@@H](O)[C@@H](C)CN5C(=O)[C@H]([C@H](O)CC(N)=O)NC(=O)[C@H]([C@H](O)[C@@H](O)c5ccc(O)c(OS(=O)(=O)O)c5)NC(=O)[C@@H]5C[C@@H](O)CN5C(=O)[C@H]([C@@H](C)O)NC4=O)cc3)no2)cc1 [MICAFUNGIN] (X1-[Orn(4R-OH,5R-OH)]T[Hyp][hTyr(3S-OH,4S-OH,3'-OSO3H)][Gln(3R-OH)][Pro(3S-OH,4S-Me)]; lactam 1-C) | 0.03 | 0.03 | 0.03 | 0.03 | 0.03 | 0.03 | 0.03 | 0.03 | 0.03 | 0.03 | 0.03 | 0.03 | 0.03 | 0.03 | 0.03 | 0.03 | 0.03 | 0.03 | 0.03 | 0.03 | minimal effective concentration (Aspergillus tubingensis [21]): 0.03 µg/mL; minimal effective concentration (Aspergillus foetidus [22]): 0.03 µg/mL; minimal effective concentration (Aspergillus tubingensis [23]): 0.03 µg/mL; minimal effective concentration (Aspergillus tubingensis [24]): 0.03 µg/mL; minimal effective concentration (Aspergillus niger [25]): 0.03 µg/mL; minimal effective concentration (Aspergillus tubingensis [26]): 0.03 µg/mL; minimal effective concentration (Aspergillus tubingensis [27]): 0.03 µg/mL; minimal effective concentration (Aspergillus tubingensis [28]): 0.03 µg/mL; minimal effective concentration (Aspergillus foetidus [29]): 0.03 µg/mL; minimal effective concentration (Aspergillus niger [30]): 0.03 µg/mL; minimal effective concentration (Aspergillus tubingensis [31]): 0.03 µg/mL; minimal effective concentration (Aspergillus tubingensis [32]): 0.03 µg/mL; minimal effective concentration (Aspergillus tubingensis [33]): 0.05 µg/mL; minimal effective concentration (Aspergillus foetidus [34]): 0.03 µg/mL
